Measured values taken from patent US5532229A, “Topical administration of vitamin D to mammals” (priority 1994, dated 1996).

Legend:
[1] = Experiment 2: serum 25(OH)D3 after 3 wk vitamin D3 supplement; type: in vivo, Male Wistar rats; details: 8 μg/day, relative to marginal-diet group
Description: After 30 days, the rats were divided into three groups of 6: one group continued with no supplement, one group was given daily vitamin D3 supplement, 8 μg/day either by gastric tube, the third received the supplement by application to the skin in 50 μL ethanol. Vitamin D3 was given for 3 wk. The day before the rats were killed, the vitamin D3 dose was supplemented with [^14 C]-labelled vitamin D3, 915,000 cpm per rat. Blood was obtained from the tail of each rat at 3 h, 9 h, and by heart puncture when the rats were anesthetized for killing, 24 h after giving the tracer. The blood was extracted and chromatographed to distinguish [^14 C]-vitamin D3 from the [^14 C]-25(OH)D3generated from it. Radioactivity was also measured in the liver, kidney, and adipose tissue. Serum nonradioactive 25(OH)D3 was also measured.
Biochemical measurements. 1,25(OH)2 D3 in serum was measured by calf-thymus receptor-binding assay after initial purification of 1,25(OH)2 D3 with C18-OH cartridges (5). For the serum volumes that were minimal, serum was measured out in 50 μL increments, and the final result was adjusted for the volume of sample analyzed. […] The material eluting as 1,25(OH)2 D3 was evaporated and redissolved in acetonitrile: water for further purification with C18-OH cartridges and quantitation by thymus receptor assay, as described for serum. […]

[2] = test system: 1α-hydroxylase; test: Experiment 3: 1-hydroxylase in renal mitochondria; type: in vivo, rat; details: for Renal mitochondria 1a-hydroxylase: 6 weeks
Description: Male, Wistar rats were obtained at 120-130 g, and placed on a 0.01% calcium, 0.7% phosphate diet that was vitamin D deficient (Teklad Test Diets, Madison, WI) this was for one week to help deplete vitamin D stores. For the next three weeks the rats were fed the vitamin D-deficient diet, but with normal, 0.5%, calcium. Starting with these 3 weeks, the rats were divided into four vitamin D3 -treatment groups, initially, nine rats per group: group a) supplemented once weekly with 0.6 μg vitamin D3 (average dose, 0.08 μg/day); group b) supplemented once every second day with vitamin D3 to provide 2 nmol/day, i.e., each dose was 4 nmol of vitamin D3; group c) supplemented once every second day with vitamin D3 to provide 8 μg/day. The preceding groups all received the vitamin D3 through an infant-feeding tube inserted through the mouth into the stomach. One group, d), received its vitamin D3 in the ethanol applied onto a shaved 2 cm×2 cm patch of skin on the back, this was done every second day to provide vitamin D3 at 8 μg/day. The volume of each dose of vitamin D3 given was adjusted so that the stated doses are per 250 g body weight. Over a second 3-week period while maintaining the described vitamin D3 dosing regimens, diet calcium content was changed weekly and blood sampling was started (that is, changes in calcium and sampling was from weeks 4 to 6, inclusive, of receiving the appropriate vitamin D3 supplement). Diet calcium was first dropped to 0.01% then raised to 1.5% and finally dropped again to 0.01%. For each week of dietary calcium manipulation, blood was obtained at day zero (the day of but just prior to the change in calcium), and days 1, 3, and 7 after the change. During the first week, 0.5 mL of blood was taken on the first two of these days and anticoagulated with heparin, the cells were isolated and resuspended in normal rat plasma and reinjected into the femoral vein. […] For the subsequent samplings, only 0.2-0.3 mL of blood was taken by bleeding from the tail into precalibrated microcentrifuge tubes. In this way, the bleeds prior to sacrifice removed a net total of less than 2 mL of blood, that is, less than or equal to 10% of the blood volume. Samples of daytime urine was collected into microfuge tubes that were fastened to the cones of metabolic collection funnels designed to hang under the wire cages. The cages and cones were rinsed with 0.1 mol/L hydrochloric acid prior to each collection. To eliminate contamination of the urine with diet, stool or water, the rats were placed into these separate cages only during the urine-collection period, until about 1 mL urine was present in the microfuge tube, this was typically within 5 min to one hour.
Biochemical measurements. 1,25(OH)2 D3 in serum was measured by calf-thymus receptor-binding assay after initial purification of 1,25(OH)2 D3 with C18-OH cartridges (5). For the serum volumes that were minimal, serum was measured out in 50 μL increments, and the final result was adjusted for the volume of sample analyzed. To measure 1α-hydroxylase in renal mitochondria, the incubation was as described previously, except the substrate was 20 μmol/L nonradioactive 25(OH)D3. The assay was stopped by addition of 2.5 mL methanol. To monitor recovery of 1,25 (OH)2 D3, 2000 cpm of [^3 H]--1,25(OH)2 D3 were added in 50 μL ethanol prior to further extraction with two additions of 1.25 mL methylene chloride. The methylene chloride layer was taken and evaporated to dryness, redissolved in hexane, isopropanol, methanol (90:9: 1) for purification by HPLC, Zorbax-Sil column. The material eluting as 1,25(OH)2 D3 was evaporated and redissolved in acetonitrile: water for further purification with C18-OH cartridges and quantitation by thymus receptor assay, as described for serum. Renal 24-hydroxylase was measured by incubating mitochondria with [^3 H]-25(OH)D3 as substrate (Vieth and Fraser, J Biol Chem. 254:12455-12460;1979). […]

C=C1CC[C@H](O)C/C1=C/C=C1\CCC[C@]2(C)[C@@H]([C@H](C)CCCC(C)C)CC[C@@H]12 [vitamin D3]
increase in 25(OH)D3 with dermal relative to gastric supplementation [1]: 59% | difference between the two routes in activities of renal enzymes (1-hydroxylase) ([2]; 20 nmol/250 g/day): no significant difference between the two routes | Renal mitochondria 1a-hydroxylase ([2]; 0.08 μg/day diet): 1052 fmol/mg/mi | Renal mitochondria 1a-hydroxylase ([2]; 0.8 μg/day G1 (gastric)): 993 fmol/mg/mi | Renal mitochondria 1a-hydroxylase ([2]; 8 μg/day G1 (gastric)): 539 fmol/mg/mi | Renal mitochondria 1a-hydroxylase ([2]; 8 μg/day dermal): 630 fmol/mg/mi | 1-hydroxylase in kidney ([2]; 8 μg/day, gastric and dermal, vs groups with less vitamin D3): suppressed 1-hydroxylase in kidney
